Source: patent publication US20260241119A1, “METERED DOSE INHALERS AND SOLUTIONS INCLUDING CANNABINOIDS IN HFA-152A” (Kindeva Drug Delivery L.P., priority 2023, published 2026)
≈ marks a conversion by molar mass, not a printed value. Read-outs that look alike come from different tables or passages of the source.

Legend:
[1] = Equilibrium saturated solubility in HFA-152a without cosolvent; type: physicochemical; conditions: organic solvent or mixture, thermodynamic from solid, no cosolvent
Experimental: In this Example, the equilibrium saturated solubility of Δ-9-THC and CBD individually in HFA-152a. was measured.
[…]. Each solution was covered with aluminum foil to prevent UV light from reaching the drug. A first set of solutions was then shaken at room temperature for 4 days. A second set of solutions was stored at 5° C. and manually shaken several times per day. After 4 days, each solution was filtered to remove undissolved CBD and/or Δ-9-THC, and the concentration of each cannabinoid was measured. Formulations were assessed for solubility at room temperature and at 5° C.

[2] = for solubility at 14 days: organic solvent or mixture; for visual solubility: HFA-152a, after 14 days, ambient conditions or 5° C.
[3] = Equilibrium saturated solubility in HFA-134a (comparative); type: physicochemical; conditions: room temperature
Experimental: (§1) In this Example, the equilibrium saturated solubility of CBD or Δ-9-THC individually in HFA-227 and HFA-134a was measured.
(§2) […]. Each solution was shaken at room temperature for 4 days, after which each solution was filtered to remove undissolved CBD and/or Δ-9-THC, and the concentration of each cannabinoid was measured. The equilibrium saturated solubility of each cannabinoid in each propellant was measured at room temperature.

[4] = Equilibrium saturated solubility in HFA-227 (comparative); type: physicochemical; conditions: organic solvent or mixture, thermodynamic from solid, room temperature
Experimental: as §1, §2

| Compound | solubility at 4 days ([1]; 5° C.) [µg/mL] | solubility at 4 days ([1]; room temperature) [µg/mL] | solubility at 14 days ([2]; HFA-152a with 1-3% ethanol by weight) [µg/mL] | visual solubility ([2]; 1% ethanol by weight) | visual solubility ([2]; 2% ethanol by weight) | visual solubility ([2]; 3% ethanol by weight) | equilibrium saturated solubility in HFA-134a ([3]; 4 days) [µg/mL] | solubility at 4 days [4] [µg/mL] | solubility at 14 days ([2]; HFA-152a with 4%, […]) [µg/mL] | visual solubility ([2]; 4% ethanol by weight) | visual solubility ([2]; 5% ethanol by weight) | visual solubility ([2]; 6% ethanol by weight) | solubility at 4 days ([3]; organic solvent or mixture, thermodynamic from solid) [µg/mL] |
| --- | --- | --- | --- | --- | --- | --- | --- | --- | --- | --- | --- | --- | --- |
| C=C(C)[C@@H]1CCC(C)=C[C@H]1c1c(O)cc(CCCCC)cc1O [CBD, 2-[(1R,6R)-6-Isopropenyl-3-methylcyclohex-2-en-1-yl]-5-pentylbenzene-1,3-diol] | ≥ 16400 | ≥ 15700 | ≥ 15900 | Soluble | soluble | soluble | 2500 | 1800 (≈ 5.72 mM) | – | – | – | – | – |
| CCCCCc1cc(O)c2c(c1)OC(C)(C)[C@@H]1CCC(C)=C[C@@H]21 [Δ-9-THC, (6aR,10aR)-6,6,9-trimethyl-3-pentyl-6a,7,8,10a-tetrahydro-6H-benzo[c]chromen-1-ol] | ≥ 21800 | ≥ 24700 | – | – | – | – | – | 1500 (≈ 4.77 mM) | ≥ 15900 | Soluble | Soluble | Soluble | 2300 (≈ 7.31 mM) |
